Assay results published in patent US5100670A, “Use of a bacitracin fraction as a growth promoting agent” (Protor Co., priority 1989, dated 1992).

Assays:
[1] = by the protease insulinase; cited from earlier work
insulinase = insulinase inhibitory activity measurement (method of Duckworth et al.); format: biochemical; conditions: for anti-insulinase activity: general statement in the description; for insulinase inhibitory activity: peaks from CM-Sepharose column, Example 1
Procedure: The desired fraction is believed to have a molecular weight of about 1400, approximately the same as bacitracin A or F. Their anti-insulinase and antibacterial activities can be assayed in conventional manner. For example, the insulinase inhibitory activity was measured according to the method of Duckworth, et al., Proc. Nat. Acad. Sci., 69, 3698-3702 (1972) and the anti-bacterial activity by the method of Patrick, et al., Antibiotics and Chemotherapy, 1, 133-137 (1951).
A 350 ml bed volume cf CM-Sepharose in a packed column (2.8×56 cm) was equilibrated with 0.05M ammonium acetate, pH 4.5. One gram of commercial bacitracin dissolved in 50 ml of buffer was applied to the packed column. The material was eluted with 2 liter of equilibrating buffer followed by 350 ml of 1M ammonium acetate pH 4.5 buffer. Five ml fractions were collected and absorbance measurements at 252, 280 and 290 nm were made. In addition, insulinase inhibitory activity measurements were made on each peak. […] The peaks were collected, lyophilized, weighed and dissolved in water at 5 mg/ml concentration for specific activity measurements. The material collected with the second buffer contained 5-10% of the total weight of the applied material and 90% of the total insulinase inhibitory capacity. The specific activity of this material was 10-12 times that of the starting commercial material.

| Substance | t1/2 of destruction of insulin after injection [1] | anti-insulinase activity (insulinase) | insulinase inhibitory activity (insulinase) |
| --- | --- | --- | --- |
| insulin | approximately 40 minutes | – | – |
| bacitracin A | – | substantially no anti-insulinase activity | negligible |
| bacitracin F | – | substantially no anti-insulinase activity | negligible |
